Tested on: GM3
Experiment: GM3 Elisa assay
Assay type: cell-based
Details: Table 3 (IC 50 Values); B16-FO cells; read-out: IC50_uM_Mean
How it was run: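 Murine B16-FO melanoma cells attached 6 h on collagen, then exposed to compounds for 2 days at 37 °C. After formaldehyde fixation, cell-surface GM3 (NeuAc) was detected by anti-GM3 IgM and peroxidase anti-mouse IgM with Quantablu fluorescence (Ex 325/Em 420).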

Row | Compound | IC50 [nM]
1 | O=C(CCCCCS(=O)(=O)C1CCCCC1)N[C@H](CN1CC[C@@H](F)C1)[C@H](O)c1ccc(OCc2ccccc2)cc1 [Compound 578] | ≤ 100
2 | COc1ccc(C(=O)CCCCCC(=O)N[C@H](CN2CC[C@H](OC)C2)[C@H](O)c2ccc3c(c2)OCCO3)cc1 [Compound 583] | 3000 to 10000
3 | CCCCOc1ccc(C(O)[C@@H](CN2CC[C@@H](F)C2)NC(=O)CCCCCCCOC)cc1 (stereo partly shown) [Compound 584] | 100 to 1000
4 | CCCCOc1ccc([C@@H](O)[C@@H](CN2CC[C@@H](F)C2)NC(=O)CCCCC(=O)C2CCCCC2)cc1 [Compound 585] | 100 to 1000
5 | CCCCOc1ccc([C@@H](O)[C@@H](CN2CC[C@H](O)C2)NC(=O)CCCCCCCOC)cc1 [Compound 586] | ≤ 100
6 | CCCCOc1ccc([C@@H](O)[C@@H](CN2CC[C@H](O)C2)NC(=O)CCCCC(=O)C2CCCCC2)cc1 [Compound 587] | 100 to 1000
7 | CCCCOc1ccc(C(CN2CCCC2)NC(=O)CCCCC(=O)c2ccc(OC)cc2)cc1 (stereo not shown) [Compound 588] | 3000 to 10000
8 | CCCCOc1ccc(CC(CN2CCCC2)NC(=O)CCCCC(=O)c2ccc(OC)cc2)cc1 (stereo not shown) [Compound 589] | 1000 to 3000
9 | CCCCOc1ccc([C@@H](O)C(CN2CC[C@H](O)C2)NC(=O)CCCCCCCOC)cc1 (stereo partly shown) [Compound 592] | ≤ 100
10 | CCCCOc1ccc([C@@H](O)[C@@H](CN2CC[C@H](O)C2)NC(=O)CCCCCOC2CCC2)cc1 [Compound 593] | 100 to 1000
11 | CCCCCCCC(=O)N[C@H](CC1CC(OCCC)C1)[C@H](O)c1ccc2c(c1)OCCO2 (stereo partly shown) [Compound 596] | 3000 to 10000
12 | CCCOC1CC(C[C@@H](NC(=O)CCOc2ccc(OC)cc2)[C@H](O)c2ccc3c(c2)OCCO3)C1 (stereo partly shown) [Compound 597] | 3000 to 10000
13 | COC1CCC(OCCC(=O)N[C@H](CN2C(C)CCCC2C)[C@@H](O)c2ccc3c(c2)OCCO3)CC1 (stereo partly shown) [Compound 598] | 3000 to 10000
14 | COc1ccc(OCCC(=O)N[C@H](CN2CCC2)[C@H](O)c2ccc3c(c2)OCCO3)cc1 [Compound 599] | 1000 to 3000
15 | COc1ccc(C(=O)CCCCCC(=O)N[C@H](CN2CC(O)C2)[C@H](O)c2ccc3c(c2)OCCO3)cc1 [Compound 600] | 1000 to 3000
16 | COc1ccc(OCCC(=O)N[C@H](CN2CC(O)C2)[C@H](O)c2ccc3c(c2)OCCO3)cc1 [Compound 601] | 3000 to 10000

Row | Compound | IC50 [nM]
17 | COc1ccc(C(=O)CCCCCC(=O)N[C@H](CN2C(C)CCCC2C)[C@H](O)c2ccc3c(c2)OCCO3)cc1 (stereo partly shown) [Compound 602] | 3000 to 10000
18 | CCCOC1CN(C[C@@H](NC(=O)CCCCCC(=O)c2ccc(OC)cc2)[C@H](O)c2ccc3c(c2)OCCO3)C1 [Compound 604] | 3000 to 10000
19 | COc1ccc(OCCC(=O)N[C@H](CN2CCCCC2C)[C@H](O)c2ccc3c(c2)OCCO3)cc1 (stereo partly shown) [Compound 606] | 3000 to 10000
20 | COc1ccc(C(=O)CCCCCC(=O)N[C@H](CN2CCCCC2C)[C@H](O)c2ccc3c(c2)OCCO3)cc1 (stereo partly shown) [Compound 607] | 1000 to 3000
21 | COc1ccc(OCCC(=O)N[C@H](CN2CCCC(C)C2)[C@H](O)c2ccc3c(c2)OCCO3)cc1 (stereo partly shown) [Compound 608] | 3000 to 10000
22 | COc1ccc(OCCC(=O)N[C@H](CN2CCC(C)CC2)[C@H](O)c2ccc3c(c2)OCCO3)cc1 [Compound 610] | 3000 to 10000
23 | O=C(N[C@H](CN1CCCC1)[C@H](O)c1ccc2c(c1)OCCO2)C(CCc1ccc(F)cc1)C(F)(F)F (stereo partly shown) [Compound 615] | 100 to 1000
24 | O=C(N[C@H](CN1CCCC1)[C@H](O)c1ccc2c(c1)OCCO2)C1CCC(C(F)(F)F)CC1 (stereo partly shown) [Compound 616] | 3000 to 10000
25 | COc1ccc(C(=O)CCCCCC(=O)N[C@H](CN2CC(F)(F)C2)[C@H](O)c2ccc3c(c2)OCCO3)cc1 [Compound 618] | 3000 to 10000
26 | COc1ccc(OCCC(=O)N[C@H](CN2CC(F)(F)C2)[C@H](O)c2ccc3c(c2)OCCO3)cc1 [Compound 622] | 3000 to 10000
27 | COc1ccc(C(=O)CCCCCC(=O)N[C@H](CN2CCC(F)(F)CC2)[C@H](O)c2ccc3c(c2)OCCO3)cc1 [Compound 625] | 3000 to 10000
28 | COc1ccc(OCCC(=O)N[C@H](CN2CCC(F)(F)CC2)[C@H](O)c2ccc3c(c2)OCCO3)cc1 [Compound 627] | 3000 to 10000
29 | O=C(N[C@H](CN1CCCC1)[C@H](O)c1ccc2c(c1)OCCO2)C1CC[C@@H](C(=O)c2ccc(F)cc2)C1 (stereo partly shown) [Compound 635] | 3000 to 10000
30 | O=C(N[C@H](CN1CCCC1)[C@H](O)c1ccc2c(c1)OCCO2)C1(C(=O)c2ccc(F)cc2)CC1 [Compound 638] | 3000 to 10000
31 | O=C(CCCCOCC(F)(F)F)N[C@H](CN1CCCC1)[C@H](O)c1ccc(OCc2ccccc2)cc1 [Compound 647] | 100 to 1000

Further lines, results first:

Row | IC50 [nM] | Compound
32 | 3000 to 10000 | O=C(N[C@H](CN1CCCC1)[C@H](O)c1ccc2c(c1)OCCO2)C1CCOCC1 [Compound 579]
33 | 3000 to 10000 | O=C(CC1CCOCC1)N[C@H](CN1CCCC1)[C@H](O)c1ccc2c(c1)OCCO2 [Compound 580]
34 | 100 to 1000 | O=C(CCCCC1CCOCC1)N[C@H](CN1CCCC1)[C@H](O)c1ccc2c(c1)OCCO2 [Compound 581]
35 | 3000 to 10000 | O=C(CCC1CCOCC1)N[C@H](CN1CCCC1)[C@H](O)c1ccc2c(c1)OCCO2 [Compound 582]
36 | 3000 to 10000 | CCCCCCC1=CC([C@H](CN2CCCC2)[C@H](O)c2ccc3c(c2)OCCO3)NN1 (stereo partly shown) [Compound 591]
37 | 1000 to 3000 | CCCCCCCC(=O)N[C@H](CN1CCC1)[C@H](O)c1ccc2c(c1)OCCO2 [Compound 594]
38 | 3000 to 10000 | CCCCCCCC(=O)N[C@H](CN1C(C)CCCC1C)[C@H](O)c1ccc2c(c1)OCCO2 (stereo partly shown) [Compound 595]
39 | 100 to 1000 | COc1ccc(C(=O)CCCCCC(=O)N[C@H](CN2CCC2)[C@H](O)c2ccc3c(c2)OCCO3)cc1 [Compound 603]
40 | 3000 to 10000 | CCCCCCCC(=O)N[C@H](CN1CCCCC1C)[C@H](O)c1ccc2c(c1)OCCO2 (stereo partly shown) [Compound 605]
41 | 100 to 1000 | COc1ccc(C(=O)CCCCCC(=O)N[C@H](CN2CCCC(C)C2)[C@H](O)c2ccc3c(c2)OCCO3)cc1 (stereo partly shown) [Compound 609]
42 | 3000 to 10000 | CCCCCCCC(=O)N[C@H](CN1CCC(C)CC1)[C@H](O)c1ccc2c(c1)OCCO2 [Compound 611]
43 | 3000 to 10000 | CC1CCN(C[C@@H](NC(=O)CCCCCC(=O)c2ccccc2)[C@H](O)c2ccc3c(c2)OCCO3)CC1 [Compound 612]
44 | 3000 to 10000 | CCCCCCCC(=O)N[C@H](CN1CCCC(C)C1)[C@H](O)c1ccc2c(c1)OCCO2 (stereo partly shown) [Compound 613]
45 | 3000 to 10000 | O=C(N[C@H](CN1CCCC1)[C@H](O)c1ccc2c(c1)OCCO2)C1(C(F)(F)F)CCC1 [Compound 614]
46 | 1000 to 3000 | O=C(CCCCOCC(F)(F)F)N[C@H](CN1CCCC1)[C@H](O)c1ccc2c(c1)OCCO2 [Compound 617]
47 | 1000 to 3000 | O=C(CCCCCC(=O)C1CC1)N[C@H](CN1CCCC1)[C@H](O)c1ccc2c(c1)OCCO2 [Compound 619]
48 | 100 to 1000 | O=C(CCCCCOCC(F)(F)F)N[C@H](CN1CCCC1)[C@H](O)c1ccc2c(c1)OCCO2 [Compound 620]
49 | 1000 to 3000 | O=C(CCCCCC(F)(F)C(F)(F)F)N[C@H](CN1CCCC1)[C@H](O)c1ccc2c(c1)OCCO2 [Compound 621]
50 | 3000 to 10000 | CCCCCCCC(=O)N[C@H](CN1CC(F)(F)C1)[C@H](O)c1ccc2c(c1)OCCO2 [Compound 623]
51 | 3000 to 10000 | O=C(CC(F)(F)F)N[C@H](CN1CCCC1)[C@H](O)c1ccc2c(c1)OCCO2 [Compound 624]

Row | IC50 [nM] | Compound
52 | 100 to 1000 | COc1ccc(C(=O)CCCCCC(=O)N[C@H](CN2CCC(F)CC2)[C@H](O)c2ccc3c(c2)OCCO3)cc1 [Compound 626]
53 | ≤ 100 | O=C(CCCCCC(=O)c1ccc(F)cc1)N[C@H](CN1CCCC1)[C@H](O)c1ccc2c(c1)OCCO2 [Compound 628]
54 | 100 to 1000 | CC(O)(CCCCCC(=O)N[C@H](CN1CCCC1)[C@H](O)c1ccc2c(c1)OCCO2)C1CC1 (stereo partly shown) [Compound 629]
55 | 100 to 1000 | O=C(CCCCCC(F)(F)C1CC1)N[C@H](CN1CCCC1)[C@H](O)c1ccc2c(c1)OCCO2 [Compound 630]
56 | 3000 to 10000 | O=C(CCCC#CC1(O)CCCCC1)N[C@H](CN1CCCC1)[C@H](O)c1ccc2c(c1)OCCO2 [Compound 631]
57 | 3000 to 10000 | N#CCCCCCC(=O)N[C@H](CN1CCCC1)[C@H](O)c1ccc2c(c1)OCCO2 [Compound 632]
58 | 100 to 1000 | CC(O)(CCCCCC(=O)N[C@H](CN1CCCC1)[C@H](O)c1ccc2c(c1)OCCO2)C1CCCC1 (stereo partly shown) [Compound 633]
59 | 100 to 1000 | O=C(CCCCCCOCC(F)(F)F)N[C@H](CN1CCCC1)[C@H](O)c1ccc2c(c1)OCCO2 [Compound 634]
60 | 3000 to 10000 | O=C(CC12CC3CC(CC(C3)C1)C2)N[C@@H](CN1CCCC1)C(O)c1ccc2c(c1)OCCO2 (stereo partly shown) [Compound 636]
61 | 100 to 1000 | O=C(CCC12CC3CC(CC(C3)C1)C2)N[C@H](CN1CCCC1)[C@H](O)c1ccc2c(c1)OCCO2 [Compound 637]
62 | 100 to 1000 | O=C(CCCC(=O)c1ccc(F)cc1)N[C@H](CN1CCCC1)[C@H](O)c1ccc2c(c1)OCCO2 [Compound 639]
63 | 100 to 1000 | O=C(CCCCC(=O)c1ccc(F)cc1)N[C@H](CN1CCCC1)[C@H](O)c1ccc2c(c1)OCCO2 [Compound 640]
64 | ≤ 100 | CC(O)(CCCCCC(=O)N[C@H](CN1CCCC1)[C@H](O)c1ccc2c(c1)OCCO2)C1CCCCC1 (stereo partly shown) [Compound 641]
65 | 100 to 1000 | O=C(CCCOn1nnc2ccccc21)N[C@H](CN1CCCC1)[C@H](O)c1ccc2c(c1)OCCO2 [Compound 642]
66 | 1000 to 3000 | O=C(CCCn1cccn1)N[C@H](CN1CCCC1)[C@H](O)c1ccc2c(c1)OCCO2 [Compound 643]
67 | 1000 to 3000 | O=C(CCCCCn1cccn1)N[C@H](CN1CCCC1)[C@H](O)c1ccc2c(c1)OCCO2 [Compound 644]
68 | 3000 to 10000 | O=C(COC1CCCCC1)N[C@H](CN1CCCC1)[C@H](O)c1ccc2c(c1)OCCO2 [Compound 645]
69 | 3000 to 10000 | Cc1noc(CCCCC(=O)N[C@H](CN2CC[C@@H](F)C2)[C@H](O)c2ccc3c(c2)OCCO3)n1 [Compound 646]
70 | 100 to 1000 | O=C(CCCCc1nc(C2CC2)no1)N[C@H](CN1CCCC1)[C@H](O)c1ccc2c(c1)OCCO2 [Compound 650]

From patent US8304447B2, “2-acylaminopropoanol-type glucosylceramide synthase inhibitors” (Genzyme Corporation, priority 2007, dated 2012)
